The first assay deals with T1, 6His-Tev-LRRK2 (1326-2527) (Homo sapiens, UniProt Q5S007).
T1 construct: A LRRK2 cDNA encoding residues 1326-2527 was received from Dundee University; made in house; host or cells: Spodoptera frugiperda (Sf9) insect cells, baculovirus
T1 sequence (Q5S007 1326-2527): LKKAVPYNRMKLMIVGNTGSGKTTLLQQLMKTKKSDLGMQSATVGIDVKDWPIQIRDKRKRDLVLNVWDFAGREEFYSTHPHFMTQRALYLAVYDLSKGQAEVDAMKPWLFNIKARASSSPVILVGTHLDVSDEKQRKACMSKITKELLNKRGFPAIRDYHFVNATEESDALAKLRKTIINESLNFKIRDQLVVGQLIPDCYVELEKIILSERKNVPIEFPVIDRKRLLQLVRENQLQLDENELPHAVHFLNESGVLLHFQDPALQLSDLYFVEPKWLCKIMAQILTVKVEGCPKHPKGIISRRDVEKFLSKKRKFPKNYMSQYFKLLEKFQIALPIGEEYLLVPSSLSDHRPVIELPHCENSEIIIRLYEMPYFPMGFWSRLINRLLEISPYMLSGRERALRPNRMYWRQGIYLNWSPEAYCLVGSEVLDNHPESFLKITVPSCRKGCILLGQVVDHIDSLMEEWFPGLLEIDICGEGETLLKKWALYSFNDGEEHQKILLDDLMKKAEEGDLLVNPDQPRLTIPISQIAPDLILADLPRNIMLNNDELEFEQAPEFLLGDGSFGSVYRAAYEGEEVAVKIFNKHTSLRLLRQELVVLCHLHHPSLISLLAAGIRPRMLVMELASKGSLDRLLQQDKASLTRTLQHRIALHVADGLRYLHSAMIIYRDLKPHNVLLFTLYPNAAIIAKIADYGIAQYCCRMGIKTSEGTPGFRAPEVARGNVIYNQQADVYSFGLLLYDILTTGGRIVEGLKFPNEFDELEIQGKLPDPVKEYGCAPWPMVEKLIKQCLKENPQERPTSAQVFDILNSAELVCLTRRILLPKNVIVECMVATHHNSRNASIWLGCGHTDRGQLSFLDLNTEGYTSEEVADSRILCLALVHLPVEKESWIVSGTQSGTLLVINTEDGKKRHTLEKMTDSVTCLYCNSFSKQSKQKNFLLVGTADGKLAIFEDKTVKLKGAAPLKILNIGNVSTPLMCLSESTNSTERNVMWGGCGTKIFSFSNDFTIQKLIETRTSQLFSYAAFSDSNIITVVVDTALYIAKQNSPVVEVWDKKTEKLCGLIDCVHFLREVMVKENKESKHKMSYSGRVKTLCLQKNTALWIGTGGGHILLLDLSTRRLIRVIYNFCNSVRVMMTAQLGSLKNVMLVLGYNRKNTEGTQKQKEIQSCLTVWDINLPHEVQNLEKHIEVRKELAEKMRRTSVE
Kind of assay: LRRK2 peptide substrate assay. As to conditions: Biotin-LRRKtide peptide substrate, ATP at Km; read-out: pIC50 in the LRRK2 peptide substrate assay (converted). The format is biochemical. The procedure:
Compounds of formula (I) may be tested for in vitro kinase activity in accordance with the following assays, using the non natural, in vitro, substrates moesin and the Longer Biotin-LRRKtide. Moesin and a shorter version of the peptide were identified as substrates in Jaleel et al, (2007, Biochem J, 405: 307-317).
LRRK2 Peptide Substrate Assay
(§1) a) 100 nl of a 1:4 serial dilution of test compound with a top final assay concentration of 30 μM is added to certain wells in a low volume 384 well black plate. 100 nl of DMSO is used in certain wells as controls.
b) 3 μl enzyme solution (80 nM purified recombinant 6His-Tev-LRRK2 (1326-2527) in assay buffer: 50 mM Hepes (pH 7.2), 10 mM MgCl2, 150 mM NaCl, 5% glycerol, 0.0025% triton X-100 and 1 mM DTT) is added to certain wells. […] Plates are then incubated for a further 1-2 hours at room temperature (incubation time varies depending upon rate and linearity of reaction with differing enzyme batches). d) 6 μl detection solution (50 nM Streptavidin SureLight® APC (PerkinElmer), 4 nM Eu-W1024 labelled anti-rabbit IgG antibody (PerkinElmer), 1:500 dilution (dilution determined on a batch to batch basis) of Phospho-Ezrin (Thr567)/Radixin (Thr564)/Moesin (Thr558) Polyclonal Antibody (New England Biolabs) and 60 mM EDTA in buffer: 40 mM Hepes (pH 7.2), 150 mM NaCl, 0.03% BSA) is added to each well. Plates are then incubated for a further 2 hours at room temperature before reading on a suitable plate reader (Excitation 330 nm, emission 620 nm (Eu) and 665 nm (APC)). Data is analysed using ActivityBase software (IDBS). LRRK2 AlphaScreen Protein Substrate Assay
Take `Cc1oncc1NC(=O)c1cc(-c2cnn(C)c2)ccc1OCc1ccc(F)cc1` [Example 135, 2-{[(4-Fluorophenyl)methyl]oxy}-N-(5-methyl-4-isoxazolyl)-5-(1-methyl-1H-pyrazol-4-yl)benzamide]: the IC50 is no more than 0.1 µM.

The target of a further assay is T1, 6His-Tev-LRRK2 (1326-2527). Kind of assay: LRRK2 AlphaScreen desensitised protein substrate assay. The format is biochemical. As to conditions: excess of ATP present (2 mM ATP); read-out: pIC50 in the LRRK2 alphascreen desensitised protein substrate assay (converted). As for the experimental part: as §1
b) 3 μl enzyme solution (80 nM purified recombinant 6His-Tev-LRRK2 (1326-2527) in assay buffer: 50 mM Hepes (pH 7.2), 10 mM MgCl2, 150 mM NaCl, 5% glycerol, 0.0025% triton X-100 and 1 mM DTT) is added to certain wells.
Plates are then incubated for a further 1-2 hours at room temperature (incubation time varies depending upon rate and linearity of reaction with differing enzyme batches).
d) 6 μl detection solution (1:250 dilution of AlphaLisa Protein A Acceptor beads (PerkinElmer), 1:64 dilution of AlphaLisa Gluthathione Donor beads (PerkinElmer) and 1:600 dilution (dilution determined on a batch to batch basis) of Phospho-Ezrin (Thr567)/Radixin (Thr564)/Moesin (Thr558) Polyclonal Antibody (New England Biolabs) in a buffer: 50 mM Hepes (pH 7.5), 250 mM NaCl, 60 mM EDTA, 1% PEG and 0.01% Brij 35) is added to each well. Plates are then incubated for a further 2 hours at room temperature in the dark before reading on an EnVision™ plate reader with AlphaScreen HTS turbo option module and AlphaScreen settings. Data is analysed using ActivityBase software (IDBS).
LRRK2 AlphaScreen Desensitised Protein Substrate Assay
This is conducted as described for the LRRK2 alphascreen protein substrate assay, with the following differences: • 1. The concentration of ATP in the substrate solution was 2 mM. • 2. The plates were incubated for 20 minutes at room temperature following addition of the substrate solution. Pharmacological Data
With `COC(=O)NCc1ccc(OCc2ccc(F)c(F)c2)c(C(=O)Nc2cccnc2)c1` [Example 120B, Methyl ({4-{[(3,4-difluorophenyl)methyl]oxy}-3-[(3-pyridinylamino)carbonyl]phenyl}methyl)carbamate], the IC50 was greater than 25.1 µM.
Same read-out and setting: the result for `Cc1nocc1NC(=O)c1cc(C(=O)N2CCOCC2)ccc1OCc1ccc(F)cc1` [Example 124, 2-{[(4-Fluorophenyl)methyl]oxy}-N-(3-methyl-4-isoxazolyl)-5-(4-morpholinylcarbonyl)benzamide] reads greater than 25.1 µM.
Still for that read-out and setting: to `Cc1nocc1NC(=O)c1cc(C(=O)N2CCOCC2)ccc1OCc1ccc(F)cc1F` [Example 126, 2-{[(2,4-Difluorophenyl)methyl]oxy}-N-(3-methyl-4-isoxazolyl)-5-(4-morpholinylcarbonyl)benzamide] belongs no more than 20 µM; to `Cn1cc(NC(=O)c2cc(-c3ccncc3)ccc2OCc2ccccc2)cn1` [Example 65, N-(1-Methyl-1H-pyrazol-4-yl)-2-[(phenylmethyl)oxy]-5-(4-pyridinyl)benzamide], no more than 20 µM; to `O=C(Nc1cnccc1CO)c1cc(-c2ccncc2)ccc1OCc1ccccc1` [Example 56, N-[4-(Hydroxymethyl)-3-pyridinyl]-2-[(phenylmethyl)oxy]-5-(4-pyridinyl)benzamide], greater than 25.1 µM.
Still for that read-out and setting: the result for `COc1ncccc1NC(=O)c1cc(-c2ccncc2)ccc1OCc1ccccc1` [Example 53, N-[2-(Methyloxy)-3-pyridinyl]-2-[(phenylmethyl)oxy]-5-(4-pyridinyl)benzamide] reads greater than 25.1 µM; that for `NCc1ccc(OCc2ccc(F)c(F)c2)c(C(=O)Nc2cccnc2)c1` [Example 120A, 5-(Aminomethyl)-2-{[(3,4-difluorophenyl)methyl]oxy}-N-3-pyridinylbenzamide], greater than 25.1 µM.
With `Cn1cc(NC(=O)c2cc(Br)ccc2OCc2ccccc2)cn1` [Example 50, 5-Bromo-N-(1-methyl-1H-pyrazol-4-yl)-2-[(phenylmethyl)oxy]benzamide], the IC50 is no more than 20 µM.
Same read-out and setting: the result for `CN1CCN(C(=O)c2ccc(OCc3ccccc3)c(C(=O)Nc3cccnc3)c2)CC1` [Example 35, 5-[(4-Methyl-1-piperazinyl)carbonyl]-2-[(phenylmethyl)oxy]-N-3-pyridinylbenzamide] reads no more than 20 µM; that for `O=C(Nc1ccnnc1)c1cc(C(F)(F)F)ccc1OCc1ccc(F)cc1` [Example 132, 2-{[(4-Fluorophenyl)methyl]oxy}-N-4-pyridazinyl-5-(trifluoromethyl)benzamide], no more than 20 µM; that for `O=C(Nc1ccnnc1)c1cc(CN2CCOCC2)ccc1OCc1ccc(F)c(F)c1` [Example 111, 2-{[(3,4-Difluorophenyl)methyl]oxy}-5-(4-morpholinylmethyl)-N-4-pyridazinylbenzamide], no more than 20 µM.
Same read-out and setting: the result for `O=C(Nc1cccnc1F)c1cc(-c2ccncc2)ccc1OCc1ccccc1` [Example 54, N-(2-Fluoro-3-pyridinyl)-2-[(phenylmethyl)oxy]-5-(4-pyridinyl)benzamide] reads no more than 20 µM; that for `O=C(Nc1cccnc1)c1cc(S(=O)(=O)N2CCOCC2)ccc1OCc1ccccc1` [Example 41, 5-(4-Morpholinylsulfonyl)-2-[(phenylmethyl)oxy]-N-3-pyridinylbenzamide], greater than 25.1 µM; that for `Cc1nocc1NC(=O)c1cc(C(F)(F)F)ccc1OCc1ccc(F)cc1` [Example 133, 2-{[(4-fluorophenyl)methyl]oxy}-N-(3-methyl-4-isoxazolyl)-5-(trifluoromethyl)benzamide], greater than 25.1 µM.
Consider `O=C(Nc1cn[nH]c1)c1cc(-c2ccncc2)ccc1OCc1ccccc1` [Example 64, 2-[(Phenylmethyl)oxy]-N-1H-pyrazol-4-yl-5-(4-pyridinyl)benzamide], for which the IC50 was no more than 20 µM.
Still for that read-out and setting: to `COc1ccccc1COc1ccc(-c2cnn(C)c2)cc1C(=O)Nc1cccnc1` [Example 114, 2-({[2-(Methyloxy)phenyl]methyl}oxy)-5-(1-methyl-1H-pyrazol-4-yl)-N-3-pyridinylbenzamide] belongs no more than 20 µM; to `Cc1ccncc1NC(=O)c1cc(-c2ccncc2)ccc1OCc1ccccc1` [Example 52, N-(4-Methyl-3-pyridinyl)-2-[(phenylmethyl)oxy]-5-(4-pyridinyl)benzamide], greater than 25.1 µM; to `O=C(Nc1cccnc1)c1cc(C(=O)N2CCCCC2)ccc1OCc1ccccc1` [Example 36, 2-[(Phenylmethyl)oxy]-5-(1-piperidinylcarbonyl)-N-3-pyridinylbenzamide], no more than 20 µM.
On to `Cc1oncc1NC(=O)c1cc(-c2ccncc2)ccc1OCc1ccccc1` [Example 62, N-(5-Methyl-4-isoxazolyl)-2-[(phenylmethyl)oxy]-5-(4-pyridinyl)benzamide], for which the IC50 was greater than 25.1 µM.
The same measure, in the same setting: the result for `O=C(Nc1cccnc1CO)c1cc(-c2ccncc2)ccc1OCc1ccccc1` [Example 55, N-[2-(Hydroxymethyl)-3-pyridinyl]-2-[(phenylmethyl)oxy]-5-(4-pyridinyl)benzamide] reads greater than 25.1 µM.
The same measure, in the same setting: to `CN1CCN(S(=O)(=O)c2ccc(OCc3ccccc3)c(C(=O)Nc3cccnc3)c2)CC1` [Example 43, 5-[(4-Methyl-1-piperazinyl)sulfonyl]-2-[(phenylmethyl)oxy]-N-3-pyridinylbenzamide] belongs greater than 25.1 µM; to `O=C(Nc1cccnc1)c1cc(S(=O)(=O)N2CCCCC2)ccc1OCc1ccccc1` [Example 42, 2-[(Phenylmethyl)oxy]-5-(1-piperidinylsulfonyl)-N-3-pyridinylbenzamide], greater than 25.1 µM.

These data come from patent US8778939B2, “Compounds” (Glaxo Group Limited, priority 2009, dated 2014).
